In one test the target is T1, DNA gyrase (Escherichia coli, UniProt P0AES4+P0AES6).
T1 construct: supercoiling of relaxed pUC18
The experiment in a line: Inhibition of DNA gyrase activity (DNA gyrase supercoiling assay, relaxed pUC18 plasmid as substrate). Type of test: biochemical, E. coli H560. The protocol:
A. Inhibition of DNA gyrase activity
The inhibition of DNA gyrase activity was measured using a DNA gyrase supercoiling assay according to R. Otter & N. Cozzarelli: Methods in Enzymology, Vol. 100, pp 171-180 (1983). DNA gyrase was isolated from E. coli H560, and relaxed pUC18 plasmid was used as substrate. The activities as regards inhibition of DNA gyrase activity, expressed as maximum non-effective concentration of the test compound (MNC in μg/ml) are compiled in the following Table 1: […]

Another test relates to E. coli B. The test can be described thus: Antibacterial activity in vitro (agar dilution). The class given is cell-based. Conditions: Escherichia coli, agar dilution (MuellerHinton agar), inoculum 10^4 CFU/spot, read-out: minimum inhibitory concentration (MIC). A general note: In agar dilution, organisms are placed on agar that contains the substance at set levels.
The subject of the next test is P. aeruginosa 799/61. The experiment in a line: Antibacterial activity in vitro (agar dilution). Type of test: cell-based. Conditions: Pseudomonas aeruginosa, agar dilution (MuellerHinton agar), inoculum 10^4 CFU/spot, read-out: minimum inhibitory concentration (MIC).
The subject of a further test is S. aureus 25923. The test can be described thus: Antibacterial activity in vitro (agar dilution). The class given is cell-based. The conditions noted are these: Staphylococcus aureus, agar dilution (MuellerHinton agar), inoculum 10^4 CFU/spot, read-out: minimum inhibitory concentration (MIC).
Another test concerns S. aureus Smith. The test can be described thus: Antibacterial activity in vitro (agar dilution). Type of test: cell-based. Conditions: Staphylococcus aureus, agar dilution (MuellerHinton agar), inoculum 10^4 CFU/spot, read-out: minimum inhibitory concentration (MIC).
Another test has as its system S. epidermidis 16-2. The experiment in a line: Antibacterial activity in vitro (agar dilution). The class given is cell-based. Conditions: Staphylococcus epidermidis, 162, agar dilution (MuellerHinton agar), inoculum 10^4 CFU/spot, read-out: minimum inhibitory concentration (MIC).
Another test deals with S. pyogenes 15. The test can be described thus: Antibacterial activity in vitro (agar dilution). The class given is cell-based. Conditions: Streptococcus pyogenes, agar dilution (MuellerHinton agar), inoculum 10^4 CFU/spot, read-out: minimum inhibitory concentration (MIC).
A further test has as its system S. faecalis 6. The test can be described thus: Antibacterial activity in vitro (agar dilution). Type of test: cell-based. The conditions noted are these: Enterococcus faecalis, agar dilution (MuellerHinton agar), inoculum 10^4 CFU/spot, read-out: minimum inhibitory concentration (MIC).

In brackets after ≈: the same amount, converted by molar mass.

T1 sequence (P0AES4 whole entry, one chain of several): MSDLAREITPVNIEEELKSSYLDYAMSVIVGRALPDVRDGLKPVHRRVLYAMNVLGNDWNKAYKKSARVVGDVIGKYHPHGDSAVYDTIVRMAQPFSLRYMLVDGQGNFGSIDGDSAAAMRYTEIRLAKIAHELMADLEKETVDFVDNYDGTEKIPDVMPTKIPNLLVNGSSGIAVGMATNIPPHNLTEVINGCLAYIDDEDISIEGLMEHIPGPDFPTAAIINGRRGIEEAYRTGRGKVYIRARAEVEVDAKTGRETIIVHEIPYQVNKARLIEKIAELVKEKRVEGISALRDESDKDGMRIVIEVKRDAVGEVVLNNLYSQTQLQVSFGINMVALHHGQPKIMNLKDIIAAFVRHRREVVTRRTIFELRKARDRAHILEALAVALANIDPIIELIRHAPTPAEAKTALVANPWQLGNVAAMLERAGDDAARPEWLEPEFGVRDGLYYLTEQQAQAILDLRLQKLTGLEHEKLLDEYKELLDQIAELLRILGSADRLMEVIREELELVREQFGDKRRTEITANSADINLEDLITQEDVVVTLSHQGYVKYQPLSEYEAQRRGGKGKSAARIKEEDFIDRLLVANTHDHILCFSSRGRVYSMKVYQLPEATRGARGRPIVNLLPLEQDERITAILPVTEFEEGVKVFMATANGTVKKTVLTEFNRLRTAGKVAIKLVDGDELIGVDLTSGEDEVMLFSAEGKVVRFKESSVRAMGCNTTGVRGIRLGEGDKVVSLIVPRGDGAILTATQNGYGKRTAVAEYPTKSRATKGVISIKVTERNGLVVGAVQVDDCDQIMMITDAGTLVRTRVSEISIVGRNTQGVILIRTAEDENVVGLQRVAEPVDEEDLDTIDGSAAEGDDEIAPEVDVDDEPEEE
Excerpt for E. coli B: A. Antibacterial activity in vitro
(§1) Agar dilution (MuellerHinton agar), Inoculum: 10^4 CFU/spot
Excerpt for P. aeruginosa 799/61: A. Antibacterial activity in vitro
as §1
Excerpt for S. aureus 25923: A. Antibacterial activity in vitro
as §1
Excerpt for S. aureus Smith: A. Antibacterial activity in vitro
as §1
Excerpt for S. epidermidis 16-2: A. Antibacterial activity in vitro
as §1

For the compound `C#CCNC(=O)[C@@H]1CSCc2c(O)cc(OC)c(C)c2C(=O)OCCCCC(=S)N1` [Example 27, (R)-16-hydroxy-14-methoxy-13-methyl-12-oxo-6-thioxo-1,3,4,5,6,7,8,9,10,12-decahydro-11,2,5benzoxathiaazacyclotetradecine-4-carboxylic acid prop-2-ynylamide], the “maximum non-effective concentration of the test compound (MNC)” value (“maximum non-effective concentration” for short) on DNA gyrase turned out to be 0.01 µg/mL. The MIC turned out to be 64 µg/mL (≈ 142 µM) in the test with E. coli B; 2 µg/mL (≈ 4.44 µM) in the test with P. aeruginosa 799/61; 1 µg/mL (≈ 2.22 µM) in the test with S. aureus 25923; 0.5 µg/mL (≈ 1.11 µM) in the test on S. aureus Smith; 0.12 µg/mL (≈ 0.266 µM) with S. epidermidis 16-2; 4 µg/mL (≈ 8.88 µM) with S. pyogenes 15. For the same compound, in the test with S. faecalis 6, the MIC stood at 0.5 µg/mL (≈ 1.11 µM).

Regarding `COc1cc(O)c2c(c1C)C(=O)O[C@H](CO)CCC(=S)N[C@H](C(=O)NC1CCCC1)CSC2` [Example 14, (4R,9S)-15-hydroxy-9-hydroxymethyl-13-methoxy-12-methyl-11-oxo-6-thioxo-3,4,5,6,7,8,9,11-octahydro-1H-10,2,5-benzoxathiaazacyclotridecine-4-carboxylic acid cyclopentylamide], the “maximum non-effective concentration” value at DNA gyrase was 0.2 µg/mL. The MIC in the test with E. coli B was found to be 64 µg/mL (≈ 129 µM); in the test on P. aeruginosa 799/61, 8 µg/mL (≈ 16.1 µM); in the test on S. aureus 25923, 16 µg/mL (≈ 32.2 µM); in the test on S. aureus Smith it was 8 µg/mL (≈ 16.1 µM); in the test on S. epidermidis 16-2, 1 µg/mL (≈ 2.01 µM); with S. pyogenes 15, 4 µg/mL (≈ 8.05 µM). For the same compound, the MIC with S. faecalis 6 was 4 µg/mL (≈ 8.05 µM).

As to `COC(=O)c1c(Br)c(OC)cc(O)c1CSC[C@H](NC(C)=S)c1nc(C)no1` [Example 71, (R)-2-bromo-5-hydroxy-3-methoxy-6-[2-(3-methyl-1,2,4-oxadiazol-5-yl)-2-thioacetylamino-ethylsulfanylmethyl]-benzoic acid methyl ester], the “maximum non-effective concentration” value at DNA gyrase was 0.5 µg/mL. The MIC with E. coli B was over 64 µg/mL; in the test with P. aeruginosa 799/61, 64 µg/mL (≈ 131 µM); in the test with S. aureus 25923, 2 µg/mL (≈ 4.08 µM); with S. aureus Smith, 1 µg/mL (≈ 2.04 µM); in the test with S. epidermidis 16-2 it was 0.5 µg/mL (≈ 1.02 µM); in the test on S. pyogenes 15, 4 µg/mL (≈ 8.16 µM). Further, the MIC with S. faecalis 6 was found to be 4 µg/mL (≈ 8.16 µM).

With `COC(=O)[C@@H]1CSCc2c(O)cc(OC)c(C)c2C(=O)OC[C@H](O)CCC(=S)N1` [Example 32, (4R,9R)-9,16-dihydroxy-14-methoxy-13-methyl-12-oxo-6-thioxo-1,3,4,5,6,7,8,9,10,12-decahydro-11,2,5-benzoxathiaazacyclotetradecine-4-carboxylic acid methyl ester], the “maximum non-effective concentration” value at DNA gyrase amounted to 0.01 µg/mL. Also, the MIC is over 64 µg/mL with E. coli B; 4 µg/mL (≈ 9.02 µM) in the test on P. aeruginosa 799/61; 1 µg/mL (≈ 2.25 µM) in the test with S. aureus 25923; 0.5 µg/mL (≈ 1.13 µM) in the test with S. aureus Smith; 0.25 µg/mL (≈ 0.564 µM) in the test with S. epidermidis 16-2; 2 µg/mL (≈ 4.51 µM) with S. pyogenes 15. For the same compound, the MIC in the test on S. faecalis 6 came to 2 µg/mL (≈ 4.51 µM).
